Values after ≈ are worked out from the molar mass of the structure shown.
Tests used:
[1] = Solubility of silymarin components in water (Example 10, HPLC); format: physicochemical; conditions: water
Procedure: (§1) Silymarin components including taxifolin, silydianin, silychristin, silybin A, silybin B, isosilybin A, and isosilybin B were tested for their solubility in water and also for their Log D value. The silymarin extract was obtained from Indena® (Indena Code: 9065110). The HPLC system consisted of Waters system equipped with performance PLUS inline degasser along dual λ absorbance detector set at 288 nm. The chromatographic separation of silymarin constituents was achieved on a Symmetry Shield RP18 column (150×4.6 mm, 5 μm); which was maintained at ambient room temperature conditions. The binary mobile phase system consisted of reservoir A (methanol: 10 mM ammonium acetate pH 5 [65:35 v/v]) and reservoir B (10 mM ammonium acetate, pH 5) were run as per gradient program (0-1.9 min: 25% A and 75% B; 2.0-14.9 min: 80% A and 20% B and 15-37.9 min: 80% A and 20% B and 38-40 min: 25% A and 75% B). The flow rate was 1 mL/min throughout the analytical run.

[2] = Silymarin solubility in water, CAPTISOL® solution and γ-cyclodextrin solution (Example 2, HPLC); format: physicochemical; conditions: water, thermodynamic from solid, Solubility (mg/ml) of components of silymarin
Procedure: The solutions were centrifuged for 10 min at 13K rpm. An aliquot of the supernatant was diluted 1:5 for Water, 1:25 for γ-Cyclodextrin and 1:100 for both 0.20 M CAPTISOL® and 0.20M HP-B-Cyclodextrin using MeOH as the diluent. The standard reference was prepared by dissolving silymarin in 10 mg/mL of DMSO and then diluted to 0.50 mg/mL using MeOH.
The change of the saturated solubility of the various components of silymarin in each of the four types of samples can be seen in FIG. 4.
The data shown in Table 6 is plotted in FIGS. 5 and 6. The change of the solubility of the various components of silymarin in each of the three samples can be seen in FIG. 5. The total mutual saturated solubility of all flavonolignan components can be seen in FIG. 6. […] The various components of silymarin also have increased solubility in the CAPTISOL® (0.2M) sample.

[3] = physchem; conditions: 25 °C, water, thermodynamic from solid, Solubility (mg/ml) of flavonolignan components of silymarin
Procedure: CAPTISOL® was dissolved in water to form four solutions with a CAPTISOL® concentration of 0.05 mol/L, 0.1 mol/L, 0.2 mol/L, and 0.3 mol/L respectively. 12 mg of silymarin powder (Sigma Aldrich) was added to 1 mL of each of the four CAPTISOL® solutions on Day 1, another 12 mg Silymarin powder was added on Day 3, and 19-22 mg Silymarin powder was added on Day 7 to ensure that silymarin reached its maximum solubility in each solution. The solutions were stirred in a water bath at 25° C. The solutions were then centrifuged prior to sampling. The supernatant was diluted in MeOH in preparation for HPLC assay.
A reference standard was prepared by mixing silymarin with methanol to provide a methanol solution with a silymarin concentration of 0.1 mg/ml.
HPLC was used to measure the relative concentrations of the different components of silymarin in each sample solution following the method described in Kuki et al., (2012) Chromatogram 75:175-180. The relative concentration of each component of silymarin was measured by comparing the normalized peak area units with that of the standard reference measured by the UV data at 288 nm and assuming equivalent extinction coefficients for all components.
The relative molar amounts of the ten flavonolignan components of silymarin were calculated by dividing the normalized peak area of each component in a sample by the total normalized peak area of the sample.
The concentration of each flavonolignan component of silymarin was calculated from the peak areas in Tables 1a and 1b and the total concentration of silymarin (0.1 mg/ml) in the reference sample, assuming constant extinction coefficients for each component.

[4] = Log D of silymarin components (octanol/buffer, HPLC); format: physicochemical; conditions: pH 7.4
Procedure: as §1
To determine the Log D of silymarin components, the silymarin extract (2 mg) was dissolved in 100% DMSO and then used for the experiment. Different buffers between pH ranges of 1.0 to 12 were prepared by using universal buffer stock containing 25 mM hydrochloric acid, 25 mM citric acid, 25 mM phosphoric acid, 30 mM boric acid and 20 mM sodium chloride. About 45 mL of universal buffer was titrated with Sodium hydroxide (5M) to obtain desired pH. A 10 μL of silymarin stock solution was spiked into Eppendorf tube containing 500 μL each of a buffer and presaturated octanol. This mixture was vortexed for 5 minutes and kept for shaking at room temperature. After 16 h, the mixture was centrifuged at 10,000 RPM for 30 minutes. After centrifugation buffer and octanol phases were separated, both phases were diluted with acetonitrile (1:1) and subject to HPLC analysis for quantitation of individual components of silymarin. The Log D values of each compound at a pH was determined by Log D (pH)=Log [Organic (peak area)/Aqueous (peak area)].

[5] = Pharmacokinetic study in rat; format: in vivo; conditions: in vivo; for Tmax: Tmax (h)
Procedure: The Silymarin-CAPTISOL® complex was administered to rat to test its pharmacokinetic properties.
On arrival rats were housed individually in cages at animal care facility in a temperature and humidity controlled room with a 12 h:12 h (light:dark) cycles. The rats were provided with free access to food and water for one week before using for experimental purpose. The 12 rats were equally divided into three groups—Group I: silymarin-CAPTISOL® complex with a CAPTISOL® concentration of 100 mM for oral administration; Group II: silymarin suspension (Control); and Group III: silymarin complex with a CAPTISOL® concentration of 100 mM for intravenous administration. The animals were fasted overnight with free access to water. On the day of experiment, the rat was removed from animal care facility and brought to the procedure lab. The animal was weighed and appropriate dosing volume was determined. For oral administration, rat's head was held in place by gently extending the head back and supporting the lower body. The gavage tube was placed in the mouth and advanced along the lower palate till the esophagus, and the silymarin was administered through the tube. For intravenous administration, the silymarin-CAPTISOL® complex was administered by slow bolus intravenous injection into the tail vein. Approximately 200 μL blood was drawn into heparin coated tubes at pre dose, 0.15, 0.5, 1, 2, 4, 8, 10 and 24 h for oral group II and for intravenous group III. The sampling time points were predose, 0.12, 0.25, 0.5, 1, 2, 4, 8 and 24 h through the jugular vein catheter. Plasma was harvested by centrifuging the blood at 4000 RPM for 5 min and stored frozen at −80±10° C. until analysis.
Stored plasma was thawed just before performing the silymarin components analysis. 200 μL of acetonitrile containing 0.1% of ammonia was added to 50 μL of plasma, and this mixture was vortexed for 5 min and centrifuged at 4° C. for 5 min at 10,000 RPM. After centrifugation, the supernatant was separated and injected into HPLC for analysis of silymarin constituents taxifolin, silydianin, silychristin, silybin A, silybin B, isosilybin A and isosilybin B.
The plasma concentration-time curves of silybin A, silybin B, isosilybin A, and isosilybin B in the Silymarin-CAPTISOL® sample of Group I and the control sample (silymarin suspension) are respectively shown in FIGS. 20A to 20D.

Row | Compound | solubility [1] [µg/mL] | solubility [2] [µg/mL] | solubility [3] [µg/mL] | logD at 16 h [4] | AUC(0-t) ([5]; iv, AUC(0-2 h) (ng · h/mL)) [ng·h/mL] | Cmax ([5]; iv, Cmax (ng/mL)) [ng/mL] | Tmax ([5]; iv) [min] | % Fabs of silymarin-CAPTISOL® complex compared with silymarin alone ([5]; po) | AUC of Silymarin-CAPTISOL® complex compared with the control sample ([5]; po) | AUC(0-2 h) ([5]; po) [ng·h/mL] | Cmax of Silymarin-CAPTISOL® complex compared with the control sample ([5]; po) | Tmax ([5]; po) [min]
1 | COc1cc([C@H]2Oc3ccc([C@H]4Oc5cc(O)cc(O)c5C(=O)[C@@H]4O)cc3O[C@@H]2CO)ccc1O [Isosilybin A] | 18.8 (≈ 39 µM) | 40 (≈ 82.9 µM) | 40 (≈ 82.9 µM) | 2.47 | 1970 | 4160 | 4.2 | higher % Fabs | higher AUC | 150 | higher Cmax | 30
2 | COc1cc([C@@H]2[C@H]3CO[C@@]4(O)C(=O)[C@@H]2C=C([C@H]2Oc5cc(O)cc(O)c5C(=O)[C@@H]2O)[C@@H]34)ccc1O [Silydianin] | 232 (≈ 481 µM) | 120 (≈ 249 µM) | 70 (≈ 145 µM) | 1.64 | – | – | – | – | – | – | – | –
